In brackets after ≈: the same amount, converted by molar mass.
Legend:
[1] = tested on: VRE NCTC12201; assay: In vitro infectivity assay (MIC), broth dilution, Exp. Ex. 1-1; type: cell-based, enterococci; conditions: VRE NCTC12201, Mueller-Hinton broth, 35° C., 24 hours
Protocol: (§1) The antibacterial activities were measured based on broth dilution techniques of international standards (Clinical Laboratory Standards Institute: CLSI). The activities were shown by minimum inhibitory concentrations (MICs) determined by inoculating the above-mentioned strains at a concentration of about 10^5 […] into Mueller-Hinton broth (manufactured by Difco) containing 0.85% NaCl in 96-well microplates and incubating the plates at 35° C. for 24 hours. Measurement was carried out three times.
(§2) The antibacterial activities of the compounds of the present invention against various strains such as methicillin-resistant Staphylococcus aureus (MRSA), vancomycin intermediate-resistant Staphylococcus aureus (VISA), methicillin-sensitive Staphylococcus aureus (MSSA), and vancomycin-resistant enterococci (VRE) were examined. Of the bacteria used in MIC measurement in this test example, clinical bacteria of MRSA (OM481 strain and OM584 strain) were supplied from Okayama University Hospital (Japan). An MRSA strain N315, a vancomycin intermediate-resistant Staphylococcus aureus (VISA) strain Mu50, and a methicillin-sensitive Staphylococcus aureus (MSSA) strain FDA 209P were used as controls. Vancomycin-resistant enterococcus (VRE) strains NCTC 12201 and FN-1 were supplied from the National Institute of Infectious Disease (Japan).

[2] = tested on: VRE FN-1; assay: as above; type: cell-based, enterococci; conditions: VRE FN-1, Mueller-Hinton broth, 35° C., 24 hours
Protocol: as §1, §2

[3] = target: T1, DNA gyrase of Escherichia coli (Escherichia coli, UniProt P0AES4+P0AES6); assay: DNA gyrase inhibition (supercoiling assay kit), Exp. Ex. 1-2; type: biochemical; conditions: E. coli DNA gyrase supercoiling, relaxed pBR322, 37° C., 30 minutes; for IC50: read-out: Gyrase inhibitory activity IC50 (converted)
T1 construct: purchased John Innes Enterprises #K0001
Protocol: (§3) As a kit for measurement of DNA gyrase of Escherichia coli, a product purchased from John Innes Enterprises (Gyrase Supercoiling assay kit #K0001) was used. Relaxed DNA was modified with gyrase into supercoiled DNA, and reaction products were separated by electrophoresis depending on the sizes of the molecular weights to examine anti-gyrase effects (IC50). One unit (1 U) of DNA gyrase and […] of relaxed pBR322 DNA were added to […] of the reaction solution, and the mixture was allowed to react at 37° C. for 30 minutes in the presence of 35 mM Tris-HCl (pH 7.5), 24 mM KCl, 4 mM MgCl2, 2 mM DTT, 1.8 mM spermidine, 1 mM ATP, 6.5% (w/v) glycerol, and 0.1 mg/ml BSA. The reactions were stopped using […] of a reaction stop solution (40% sucrose, 100 mM Tris-HCl (pH 7.5), 1 mM EDTA, 0.5 mg/ml bromophenol blue).

[4] = tested on: MRSA N315; assay: In vitro infectivity assay (MIC), broth dilution, Exp. Ex. 1-1; type: cell-based, Staphylococcus aureus; conditions: MRSA N315, Mueller-Hinton broth, 35° C., 24 hours; for MIC: Staphylococcus aureus, read-out: MIC MRSA N315
Protocol: as §1, §2

[5] = tested on: MRSA OM481; assay: as above; type: cell-based, Staphylococcus aureus; conditions: MRSA OM481, Mueller-Hinton broth, 35° C., 24 hours; for MIC: Staphylococcus aureus, read-out: MIC MRSA OM481
Protocol: as §1, §2

[6] = tested on: MRSA OM58; assay: as above; type: cell-based, Staphylococcus aureus; conditions: MRSA OM58, Mueller-Hinton broth, 35° C., 24 hours; for MIC: Staphylococcus aureus, read-out: MIC MRSA OM58
Protocol: as §1, §2

[7] = tested on: MSSA FDA 209P; assay: as above; type: cell-based, Staphylococcus aureus; conditions: MSSA FDA 209P, Mueller-Hinton broth, 35° C., 24 hours; for MIC: Staphylococcus aureus, read-out: MIC MSS 209P
Protocol: as §1, §2

[8] = tested on: VISA Mu50; assay: as above; type: cell-based, Staphylococcus aureus; conditions: VISA Mu50, Mueller-Hinton broth, 35° C., 24 hours
Protocol: as §1, §2

[9] = tested on: Pseodomonas aeruginosa PAOI; assay: Antibacterial activity (MIC) against Gram-negative strains, microdilution; type: cell-based; conditions: MIC after 24 h, read-out: MIC (Gram-nagative) PAO1
Protocol: as §1

[10] = tested on: Escherichia coli K-12; assay: as above; type: cell-based; conditions: K12, MIC after 24 h, read-out: MIC (Gram-nagative) K-12
Protocol: as §1

[11] = tested on: Streptococcus pneumoniae R6; assay: In vitro infectivity assay (MIC), Exp. Ex. 2-1; type: cell-based; conditions: Streptococcus pneumoniae, R6, 24 h, read-out: MIC S. Pneumoniae R6
[12] = target: T2, E. coli DNA gyrase (Escherichia coli, UniProt P0AES4+P0AES6); assay: DNA gyrase inhibition (supercoiling kit), Exp. Ex. 2-2; type: biochemical
T2 construct: purchased John Innes Enterprises #K0001
Protocol: as §3, with “1” for “One”

[13] = tested on: Methicillin-resistant S. aureus OM584; assay: In vitro infectivity assay (MIC), Exp. Ex. 2-1; type: cell-based, Staphylococcus aureus; conditions: Staphylococcus aureus, MRSA; Gram-positive; microdilution, MIC after 24 h; read-out: MIC MRSA OM584
Protocol: as §1
as §2, with “vancomycin-resistant enterococci (VRE),” for “methicillin-resistant Staphylococcus aureus (MRSA),”, “(VISA), methicillin-resistant Staphylococcus aureus (MRSA), and” for “(VISA),”, “(MSSA)” for “(MSSA), and vancomycin-resistant enterococci (VRE)”

[14] = tested on: Methicillin-resistant S. aureus OM481; assay: In vitro infectivity assay (MIC), Exp. Ex. 2-1; type: cell-based, Staphylococcus aureus; conditions: Staphylococcus aureus, MRSA; Gram-positive; microdilution, MIC after 24 h; read-out: MIC MRSA OM481
Protocol: as §1
as §2, with “vancomycin-resistant enterococci (VRE),” for “methicillin-resistant Staphylococcus aureus (MRSA),”, “(VISA), methicillin-resistant Staphylococcus aureus (MRSA), and” for “(VISA),”, “(MSSA)” for “(MSSA), and vancomycin-resistant enterococci (VRE)”

[15] = tested on: Methicillin-resistant S. aureus N315; assay: In vitro infectivity assay (MIC), Exp. Ex. 2-1; type: cell-based, Staphylococcus aureus; conditions: Staphylococcus aureus, MRSA; Gram-positive; microdilution, MIC after 24 h; read-out: MIC MRSA N315
Protocol: as §1
as §2, with “vancomycin-resistant enterococci (VRE),” for “methicillin-resistant Staphylococcus aureus (MRSA),”, “(VISA), methicillin-resistant Staphylococcus aureus (MRSA), and” for “(VISA),”, “(MSSA)” for “(MSSA), and vancomycin-resistant enterococci (VRE)”

[16] = tested on: Methicillin-resistant S. aureus COL; assay: In vitro infectivity assay (MIC), Exp. Ex. 2-1; type: cell-based, Staphylococcus aureus; conditions: Staphylococcus aureus, MRSA; Gram-positive; microdilution, MIC after 24 h
Protocol: as §1
as §2, with “vancomycin-resistant enterococci (VRE),” for “methicillin-resistant Staphylococcus aureus (MRSA),”, “(VISA), methicillin-resistant Staphylococcus aureus (MRSA), and” for “(VISA),”, “(MSSA)” for “(MSSA), and vancomycin-resistant enterococci (VRE)”

[17] = tested on: Methicillin sensitive S. aureus 209P; assay: In vitro infectivity assay (MIC), Exp. Ex. 2-1; type: cell-based, Staphylococcus aureus; conditions: Staphylococcus aureus, 209P / MSSA; Gram-positive; microdilution, MIC after 24 h; read-out: MIC MSSA 209P
Protocol: as §1
as §2, with “vancomycin-resistant enterococci (VRE),” for “methicillin-resistant Staphylococcus aureus (MRSA),”, “(VISA), methicillin-resistant Staphylococcus aureus (MRSA), and” for “(VISA),”, “(MSSA)” for “(MSSA), and vancomycin-resistant enterococci (VRE)”

melting point [°C] | Compound | MIC VRE NCTC 12201 [1] [µg/mL] | MIC VRE FN-1 [2] [µg/mL] | Gyrase inhibitory activity IC50 [3] [µg/mL] | MIC MRSA N315 [4] [µg/mL] | MIC MRSA OM481 [5] [µg/mL] | MIC MRSA OM58 [6] [µg/mL] | MIC MSS 209P [7] [µg/mL] | MIC VISA Mu50 [8] [µg/mL] | further results
 | O=C(O[C@H]1[C@H](Oc2c(-c3ccc(O)c(O)c3)oc3cc(O)cc(O)c3c2=O)O[C@H](CO)[C@@H](O)[C@@H]1OC(=O)c1ccc(F)cc1)c1ccc(F)cc1 [Compound 15g, 2-(3′,4′-Dihydroxy)-5,7-dihydroxy-3-β-D-(2″,3″-di-p-flurobenzoyloxy)glucosyl-4H-chromen-4-one] | 8 (≈ 11.3 µM) | 8 (≈ 11.3 µM) | 4.25 | 2 (≈ 2.82 µM) | 16 (≈ 22.6 µM) | 16 (≈ 22.6 µM) | 2 (≈ 2.82 µM) | 2 (≈ 2.82 µM) | 
105 to 107 | Cc1ccc(CCC(=O)c2cc(O)c3c(=O)c(C(=O)CCc4ccc(C)cc4)c(-c4ccc(O)c(O)c4)oc3c2)cc1 [Compound 2a, 2-(3′,4′-Dihydroxyphenyl)-5-hydroxy-3,7-di-(4-methylphenylpropanoyl)-4H-chromen-4-one] |  |  |  |  |  |  |  |  | 
119 to 121 | O=C(CCc1ccc(F)cc1)c1cc(O)c2c(=O)c(C(=O)CCc3ccc(F)cc3)c(-c3ccc(O)c(O)c3)oc2c1 [Compound 2b, 2-(3′,4′-Dihydroxyphenyl)-5-hydroxy-3,7-di-(4-fluorophenylpropanoyl)-4H-chromen-4-one] |  |  |  |  |  |  |  |  | 
215 to 217 | O=c1c([C@@H]2O[C@H](CO)[C@H](O)[C@H](O)[C@H]2O)c(-c2ccc(O)c(O)c2)oc2cc([C@@H]3O[C@H](CO)[C@H](O)[C@H](O)[C@H]3O)cc(O)c12 [Compound 6, 2-(3′,4′-Dihydroxyphenyl)-5-hydroxy-3,7-di-β-D-galactosyl-4H-chromen-4-one] |  |  |  |  |  |  |  |  | 
 | CCn1cc(C(=O)O)c(=O)c2cc(F)c(N3CCNCC3)cc21 [Norfloxacin, norfloxacin, reference compound] |  |  |  |  |  |  |  |  | MIC [9]: 0.25 µg/mL (≈ 0.783 µM); MIC [10]: 0.25 µg/mL (≈ 0.783 µM); IC50 [3]: 908 nM; MIC [11]: 0.25 µg/mL (≈ 0.783 µM); MIC [4]: 2 µg/mL (≈ 6.26 µM); MIC [5]: 128 µg/mL (≈ 401 µM); MIC [6]: 64 µg/mL (≈ 200 µM); MIC [7]: 0.5 µg/mL (≈ 1.57 µM); IC50 [12]: 90 nM; MIC [13]: 128 µg/mL (≈ 401 µM); MIC [14]: 64 µg/mL (≈ 200 µM); MIC [15]: 2 µg/mL (≈ 6.26 µM); MIC [16]: 1 µg/mL (≈ 3.13 µM); MIC [17]: 0.5 µg/mL (≈ 1.57 µM)
 | CCOc1ccc(CCC(=O)O[C@H]2[C@H](Oc3c(-c4ccc(O)c(O)c4)oc4cc(O)cc(O)c4c3=O)O[C@H](CO)[C@@H](O)[C@@H]2OC(=O)CCc2ccc(OCC)cc2)cc1 [Compound 15b, 2-(3′,4′-Dihydroxy)-5,7-dihydroxy-3-β-D-(2″,3″-di-p-ethoxyphenylethylcarboxy)glucosyl-4H-chromen-4-one] | 8 (≈ 9.79 µM) | 8 (≈ 9.79 µM) | 9.23 | 2 (≈ 2.45 µM) | 4 (≈ 4.9 µM) | 8 (≈ 9.79 µM) | 2 (≈ 2.45 µM) | 4 (≈ 4.9 µM) | 
 | O=c1c(O[C@@H]2O[C@H](CO)[C@@H](O)[C@H](O)[C@H]2O)c(-c2ccc(O)c(O)c2)oc2cc(O)cc(O)c12 [Compound 17, 2-(3′4′-Dihydroxy)-5,7-dihydroxy-3-β-D-glucosyl-4H-chromen-4-one] |  |  |  |  |  |  |  |  | MIC ([1]; Enterococcus, read-out: MIC VRE NCTC12201): > 128 µg/mL; MIC ([2]; Enterococcus, read-out: MIC VRE FN-1): > 128 µg/mL; IC50 [3]: > 25800 nM; MIC [4]: > 128 µg/mL; MIC [5]: > 128 µg/mL; MIC [6]: > 128 µg/mL; MIC [7]: > 128 µg/mL; MIC ([8]; Staphylococcus aureus, read-out: MIC VISA Mu50): > 128 µg/mL
 | O=C(CCc1ccc(O)cc1)O[C@H]1[C@H](Oc2c(-c3ccc(O)c(O)c3)oc3cc(O)cc(O)c3c2=O)O[C@H](CO)[C@@H](O)[C@@H]1OC(=O)CCc1ccc(O)cc1 [Compound 15a, 2-(3′,4′-Dihydroxy)-5,7-dihydroxy-3-β-D-(2″,3″-di-p-hydroxyphenylethylcarboxy)glucosyl-4H-chromen-4-one] | 8 (≈ 10.5 µM) | 8 (≈ 10.5 µM) | 2.54 | 4 (≈ 5.26 µM) | 4 (≈ 5.26 µM) | 4 (≈ 5.26 µM) | 4 (≈ 5.26 µM) | 4 (≈ 5.26 µM) | 

Source: patent US8916526B2, “Flavanone derivative” (National University Corporation Okayama University, priority 2009, dated 2014)
